Measurements published in US20230242513A1, “NOVEL HETEROARYL-SUBSTITUTED PYRAZINE DERIVATIVES AS PESTICIDES” (Bayer Animal Health GmbH, priority 2020, published 2023).

How the values were obtained:
Assay type in all cases: in vivo
[1] = test system: Diabrotica balteata (banded cucumber beetle larvae); experiment: Diabrotica balteata spray test; details: 168 h, wheat seeds, after 7 days, read-out: efficacy (seedlings grown up like untreated, uninfected control); for pest or weed control at 32 µg/disc, 100 g/ha: application rate 100 g/ha (=32 μg/well); for pest or weed control at 160 µg/disc, 500 g/ha: application rate 500 g/ha (=160 μg/well)
Description: Diabrotica balteata—Spray Test
(§1) Solvent: 78.0 parts by weight of acetone • • 1.5 parts by weight of dimethylformamide
(§2) Emulsifier: alkylarylpolyglycol ether
(§3) To produce a suitable preparation of active compound, 1 part by weight of active compound is mixed with the stated amount of solvent, and the concentrate is diluted with water, containing an emulsifier concentration of 1000 ppm, to the desired concentration. Further test concentrations are prepared by dilution with emulsifier containing water.
Soaked wheat seeds (Triticum aestivum) are placed in a multiple well plate filled with agar and some water and are incubated for 1 day to germinate (5 seeds per well). The germinated wheat seeds are sprayed with a test solution containing the desired concentration of the active ingredient. Afterwards each unit is infected with 10-20 larvae of the banded cucumber beetle (Diabrotica balteata).
After 7 days efficacy in % is determined. 100% means all the seedlings have grown up like in the untreated, uninfected control; 0% means none of the seedlings have grown.

[2] = test system: Rhipicephalus (Boophilus) microplus larvae (strain Parkhurst, resistant against synthetic pyrethroids); experiment: Rhipicephalus (Boophilus) microplus in-vitro contact test, larval cattle tick; details: application rate 5 μg/cm^2 (=500 g/ha); after 48 hours
Description: Rhipicephalus (Boophilus) microplus—In-Vitro Contact Tests Larval Cattle Tick (Strain Parkhurst, Resistant Against Synthetic Pyrethroids)
(§4) 9 mg compound is solved in 1 mL acetone and diluted with acetone to the desired concentration. 250 μL of the test solution is filled in 25 mL glass test tubes and homogeneously distributed on the inner walls by rotation and tilting on a shaking device (2 h at 30 rpm). With a compound concentration of 900 ppm, an inner surface of 44.7 cm^2 and a homogeneous distribution, a dose of 5 pg/cm^2 is achieved.
After the solvent has evaporated, each test tube is filled with 20-50 cattle tick larvae (Rhipicephalus microplus), closed with a perforated lid and incubated in a horizontal position at 85% relative humidity and 27° C. in an incubator. After 48 hours efficacy is determined. The larvae are patted on the ground of the tubes and negative geotactic behavior is recorded.
An efficacy of 100% means all larvae are dead or moribund; 0% means no larvae are dead or moribund.

[3] = test system: Nezara viridula (southern green stink bug larvae); experiment: Nezara viridula spray test; details: 96 h, application rate 500 g/ha, barley plants, after 4 days
Description: Nezara viridula—Spray Test
as §1, §2, §3
Barley plants (Hordeum vulgare) are sprayed with a test solution containing the desired concentration of the active ingredient and are infested with larvae of the southern green stink bug (Nezara viridula).
After 4 days mortality in % is determined. 100% means all the stink bugs have been killed; 0% means none of the stink bugs have been killed.

[4] = test system: Myzus persicae (green peach aphid); experiment: Myzus persicae oral test; details: 120 h, application rate 20 ppm, after 5 days
Description: Solvent: 100 parts by weight acetone
To produce a suitable preparation of active compound, 1 part by weight of active compound is mixed with the stated amount of solvent, and the concentrate is diluted with water to the desired concentration.
50 μL compound solution is filled in microtiter plates and 150 μL IPL41 insect medium (33%+15% sugar) is added to obtain a total volume of 200 μL per well. Afterwards the plates are sealed with parafilm through which a mixed population of the green peach aphid (Myzus persicae) can suck on the compound preparation.
After 5 days mortality in % is determined. 100% means all aphids have been killed and 0% means none of the aphids have been killed.

[5] = test system: Rhipicephalus sanguineus (adult brown dog ticks); experiment: Rhipicephalus sanguineus in-vitro contact test, adult brown dog ticks; details: after 48 hours
Description: Rhipicephalus sanguineus—In-Vitro Contact Tests with Adult Brown Dog Ticks
as §4, with “μg/cm^2” for “pg/cm^2”
(§5) After the solvent has evaporated, each test tube is filled with 5-10 adult brown dog ticks (Rhipicephalus sanguineus), closed with a perforated lid and incubated in a lying position at room temperature and relative humidity. After 48 hours efficacy is determined. The ticks are patted on the ground of the tubes and are incubated on a heating plate at 45-50° C. for at most 5 minutes. Immotile or uncoordinated moving ticks, which are not able to escape the heat by climbing upwards, are marked as dead or moribund.
An efficacy of 100% means all ticks are dead or moribund; 0% means no ticks are dead or moribund.

[6] = test system: Nilaparvata lugens (brown planthopper); experiment: Nilaparvata lugens spray test; details: 96 h, application rate 500 g/ha, rice plants, after 4 days
Description: Nilaparvata lugens—Spray Test
as §1, §2
as §3, with “solvents” for “solvent,”, “and” for “and the concentrate”
Rice plants (Oryza sativa) are sprayed with a preparation of the active ingredient of the desired concentration and the plants are infested with the brown planthopper (Nilaparvata lugens).
After 4 days mortality in % is determined. 100% means all planthoppers have been killed and 0% means none of the planthoppers have been killed.

[7] = test system: Spodoptera frugiperda (fall armyworm larvae); experiment: Spodoptera frugiperda spray test; details: in Zea mays, 168 h
Description: Spodoptera frugiperda—Spray Test
Solvent: 78.0 parts by weight acetone • 1.5 parts by weight dimethylformamide
as §2
as §3, with “solvents” for “solvent,”, “and” for “and the concentrate”
Maize (Zea mays) leaf sections are sprayed with a preparation of the active ingredient of the desired concentration. Once dry, the leaf sections are infested with fall armyworm larvae (Spodoptera frugiperda).
After 7 days mortality in % is determined. 100% means all caterpillars have been killed and 0% means none of the caterpillars have been killed.

[8] = test system: Ctenocephalides felis (adult cat fleas); experiment: Ctenocephalides felis in-vitro contact test, adult cat flea; details: after 48 hours
Description: Ctenocephalides felis—In-Vitro Contact Tests Adult Cat Flea
as §4, with “μg/cm^2” for “pg/cm^2”
as §5, with “cat fleas (Ctenocephalides felis),” for “brown dog ticks (Rhipicephalus sanguineus),”, “fleas” for “ticks”, “fleas,” for “ticks,”
An efficacy of 100% means all fleas are dead or moribund; 0% means no fleas are dead or moribund.

[9] = application rate 5 μg/cm^2 (=500 g/ha)
[10] = application rate 1 μg/cm^2 (=100 g/ha)

## CC(NC(=O)c1cc(Cl)cc(S(C)(=O)=O)c1)c1nccnc1-n1nccn1 (racemic) [Example I-1, (rac)-3-Chloro-5-(methylsulfonyl)-N-{1-[3-(2H-1,2,3-triazol-2-yl)pyrazin-2-yl]ethyl}benzamide]
[1]
  pest or weed control at 32 µg/disc, 100 g/ha: 100%
  pest or weed control at 160 µg/disc, 500 g/ha: 100%
[2]
  efficacy (larvae dead or moribund): 90%
[3]
  mortality at 500 g/ha: 100%
[4]
  mortality at 20 ppm: 100%
[5]; [9]
  efficacy (ticks dead or moribund): 100%

## Cc1ncn(-c2nccnc2C(C)NC(=O)c2cc(Br)cc(Br)c2)n1 (racemic) [Example I-2, 3,5-Dibromo-N-{(rac)-1-[3-(3-methyl-1H-1,2,4-triazol-1-yl)pyrazin-2-yl]ethyl}benzamide]
[1]
  pest or weed control at 32 µg/disc, 100 g/ha: 100%

## Cc1ncn(-c2nccnc2C(C)NC(=O)c2cc(C(F)(F)F)cc(C(F)(F)F)c2)n1 (racemic) [Example I-3, (rac)-N-{1-[3-(3-Methyl-1H-1,2,4-triazol-1-yl)pyrazin-2-yl]ethyl}-3,5-bis(trifluoromethyl)benzamide]
[6]
  mortality at 500 g/ha: 90%
[7]
  mortality at 100 g/ha: 100%

## Cc1ncn(-c2nccnc2C(C)NC(=O)c2cc(Cl)cc(S(C)(=O)=O)c2)n1 (racemic) [Example I-4, (rac)-3-Chloro-5-(methanesulfonyl)-N-{1-[3-(3-methyl-1H-1,2,4-triazol-1-yl)pyrazin-2-yl]ethyl}benzamide]
[1]
  pest or weed control at 32 µg/disc, 100 g/ha: 100%
[3]
  mortality at 500 g/ha: 70%

## CC(NC(=O)c1cc(C(F)(F)F)cc(C(F)(F)F)c1)c1nccnc1-n1cncn1 (racemic) [Example I-5, (rac)-N-(1-[3-(1H-1,2,4-Triazol-1-yl)pyrazin-2-yl]ethyl)-3,5-bis(trifluoromethyl)benzamide]
[6]
  mortality at 500 g/ha: 100%
[1]
  pest or weed control at 32 µg/disc, 100 g/ha: 100%
[7]
  mortality at 20 g/ha: 83%

## CC(NC(=O)c1cc(Cl)cc(S(C)(=O)=O)c1)c1nccnc1-n1cncn1 (racemic) [Example I-6, (rac)-3-Chloro-5-(methanesulfonyl)-N-{1-[3-(1H-1,2,4-triazol-1-yl)pyrazin-2-yl]ethyl}benzamide]
[6]
  mortality at 500 g/ha: 100%
[1]
  pest or weed control at 32 µg/disc, 100 g/ha: 100%
[3]
  mortality at 500 g/ha: 90%

## CC(NC(=O)c1cc(Br)cc(Br)c1)c1nccnc1-n1cncn1 (racemic) [Example I-7, (rac)-3,5-Dibromo-N-{1-[3-(1H-1,2,4-triazol-1-yl)pyrazin-2-yl]ethyl}benzamide]
[1]
  pest or weed control at 32 µg/disc, 100 g/ha: 100%

## Cc1ncn(-c2nccnc2C(C)NC(=O)c2cc(Cl)cc(OC(F)(F)F)c2)n1 (racemic) [Example I-9, (rac)-3-Chloro-N-{1-[3-(3-methyl-1H-1,2,4-triazol-1-yl)pyrazin-2-yl]ethyl}-5-(trifluoromethoxy)benzamide]
[1]
  pest or weed control at 32 µg/disc, 100 g/ha: 100%
[7]
  mortality at 100 g/ha: 100%

## CC(NC(=O)c1cc(C(F)(F)F)cc(C(F)(F)F)c1)c1nccnc1-c1cn(C)nn1 (racemic) [Example I-10, (rac)-N-{1-[3-(1-Methyl-1H-1,2,3-triazol-4-yl)pyrazin-2-yl]ethyl}-3,5-bis(trifluoromethyl)benz amide]
[1]
  pest or weed control at 32 µg/disc, 100 g/ha: 100%
[2]
  efficacy (larvae dead or moribund): 100%

## CC(NC(=O)c1cc(Cl)cc(OC(F)(F)F)c1)c1nccnc1-c1cn(C)nn1 (racemic) [Example I-11, (rac)-3-Chloro-N-{1-[3-(1-methyl-1H-1,2,3-triazol-4-yl)pyrazin-2-yl]ethyl}-5-(trifluoromethoxy)benzamide]
[1]
  pest or weed control at 32 µg/disc, 100 g/ha: 100%

## CC(NC(=O)c1cc(C(F)(F)F)cc(C(F)(F)F)c1)c1nccnc1-c1cn(-c2ccn(C)n2)nn1 (racemic) [Example I-12, (rac)-N-1-{3-[1-(1-Methyl-1H-pyrazol-3-yl)-1H-1,2,3-triazol-4-yl]pyrazin-2-yl}ethyl]-3,5-bis(trifluoromethyl)benzamide]
[2]
  efficacy (larvae dead or moribund): 90%
[7]
  mortality at 100 g/ha: 100%

## CC(NC(=O)c1cc(Br)cc(Br)c1)c1nccnc1-c1cn(C)nn1 (racemic) [Example I-15, (rac)-3,5-Dibromo-N-{1-[3-(1-methyl-1H-1,2,3-triazol-4-yl)pyrazin-2-yl]ethyl}benzamide]
[1]
  pest or weed control at 32 µg/disc, 100 g/ha: 100%

## CCN(C)C(=O)c1ncn(-c2nccnc2C(C)NC(=O)c2cc(C(F)(F)F)cc(C(F)(F)F)c2)n1 (racemic) [Example I-21, (rac)-1-(3-{1-[3,5-Bis(trifluoromethyl)benzamido]ethyl}pyrazin-2-yl)-N-ethyl-N-methyl-1H-1,2,4-triazole-3-carboxamide]
[8]; [10]
  efficacy (fleas dead or moribund): 80%
[2]
  efficacy (larvae dead or moribund): 100%
[5]; [10]
  efficacy (ticks dead or moribund): 80%

## CCN(C)C(=O)c1ncn(-c2nccnc2C(C)NC(=O)c2cc(Cl)cc(S(C)(=O)=O)c2)n1 (racemic) [Example I-25, (rac)-1-(3-{1-[3-Chloro-5-(methanesulfonyl)benzamido]ethyl}pyrazin-2-yl)-N-ethyl-N-methyl-1H-1,2,4-triazole-3-carboxamide]
[7]
  mortality at 100 g/ha: 100%

## CC(NC(=O)c1cc(C(F)(F)F)cc(C(F)(F)F)c1)c1nccnc1-n1cnc(C#N)n1 (racemic) [Example I-27, (rac)-N-{1-[3-(3-Cyano-1H-1,2,4-triazol-1-yl)pyrazin-2-yl]ethyl}-3,5-bis(trifluoromethyl)benzamide]
[2]
  efficacy (larvae dead or moribund): 100%

## CCOC(=O)Cn1cc(-c2nccnc2C(C)NC(=O)c2cc(C(F)(F)F)cc(C(F)(F)F)c2)nn1 (racemic) [Example I-28, (rac)-Ethyl [4-(3-{1-[3,5-bis(trifluoromethyl)benzamido]ethyl}pyrazin-2-yl)-1H-1,2,3-triazol-1-yl]acetate]
[8]; [9]
  efficacy (fleas dead or moribund): 100%
[1]
  pest or weed control at 160 µg/disc, 500 g/ha: 100%
[2]
  efficacy (larvae dead or moribund): 100%
